The record followed here is paper PMC9500072, “Topical application of an irreversible small molecule inhibitor of lysyl oxidases ameliorates skin scarring and fibrosis” (Nature Communications, 2022).

Where two headings read alike, the source gives them in different places.

Type in all cases: biochemical
The target of one experiment is T1, DAO (Homo sapiens, UniProt P19801).
T1 sequence (P19801 20-751): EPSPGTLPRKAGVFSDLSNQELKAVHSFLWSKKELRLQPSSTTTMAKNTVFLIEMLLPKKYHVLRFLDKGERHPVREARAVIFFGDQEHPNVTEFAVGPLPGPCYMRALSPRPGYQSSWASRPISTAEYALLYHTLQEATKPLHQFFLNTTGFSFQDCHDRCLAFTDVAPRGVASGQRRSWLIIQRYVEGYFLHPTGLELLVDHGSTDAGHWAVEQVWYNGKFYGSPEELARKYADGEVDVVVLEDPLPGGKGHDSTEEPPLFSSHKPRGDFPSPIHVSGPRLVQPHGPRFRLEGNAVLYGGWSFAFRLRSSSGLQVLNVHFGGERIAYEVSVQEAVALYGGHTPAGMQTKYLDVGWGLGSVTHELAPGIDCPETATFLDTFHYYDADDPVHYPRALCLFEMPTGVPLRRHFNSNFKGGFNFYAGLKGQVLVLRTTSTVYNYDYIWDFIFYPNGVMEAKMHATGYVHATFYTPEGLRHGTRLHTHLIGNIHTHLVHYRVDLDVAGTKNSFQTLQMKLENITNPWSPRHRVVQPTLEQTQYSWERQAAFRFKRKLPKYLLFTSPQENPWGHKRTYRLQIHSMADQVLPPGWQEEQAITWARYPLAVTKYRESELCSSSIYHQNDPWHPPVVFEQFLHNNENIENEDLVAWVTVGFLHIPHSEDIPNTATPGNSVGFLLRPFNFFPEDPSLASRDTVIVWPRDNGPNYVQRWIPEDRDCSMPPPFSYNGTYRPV
As to the kind of experiment: Amine oxidase inhibition profile, DAO. The text has this:
(§1) Supplem entary Materi als:
(§2) Supplementary Table S1: Amine oxidase inhibition profile of PXS -4787, PXS-6302 and
(§3) Supplementary Table S2: Perm eability profile of PXS -6302.

Another experiment concerns the target T2, Human Fibroblast LOX (Homo sapiens, UniProt P28300).
T2 construct: Fibroblast LOX; endogenous in cells; host or cells: human fibroblasts
T2 sequence (P28300 169-417): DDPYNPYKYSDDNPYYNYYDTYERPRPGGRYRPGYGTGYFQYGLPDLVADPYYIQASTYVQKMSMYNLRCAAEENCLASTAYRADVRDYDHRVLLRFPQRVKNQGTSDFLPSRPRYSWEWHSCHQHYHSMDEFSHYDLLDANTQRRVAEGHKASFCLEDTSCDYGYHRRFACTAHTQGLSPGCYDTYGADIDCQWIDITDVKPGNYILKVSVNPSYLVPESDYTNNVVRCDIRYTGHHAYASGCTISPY
As to the kind of experiment: Amine oxidase inhibition profile, human fibroblast LOX. The protocol:
(§4) The measurement of the enzymatic activity of all lysyl oxidase family members was based on the detection of hydrogen peroxide with an Amplex-Red oxidation assay, as previously described; miniaturized in 384 well formats, with the appropriate combination of substrate and assay buffer for each individual enzyme. After a 30 min pre-incubation of the enzyme at 37 °C with the test compound (or with different incubation times for the time-dependency assay), one volume of reaction mixture containing 120 μM Amplex Red (AR) (Life Technologies), 1.5 U/mL horseradish peroxidase (HRP) (Sigma-Aldrich) and the specific substrate was added to each sample. The relative fluorescence units (RFU) were then measured every 2.5 min for 30 min at 37 °C, excitation 565 nm and emission 590, on a BMG Clariostar Microplate Reader. All the substrates were used at concentrations corresponding to their Km towards the corresponding enzyme, or with a range of different concentrations for the substrate competition experiments.
(§5) Lysyl oxidases assay buffer contained 1.2 M urea, 50 mM sodium borate buffer, pH 8.2 and 100 µM β-aminoproprionitrile (BAPN, Sigma-Aldrich) was used for low control.
as §1, §2, §3

For the next experiment, the target named is T3, Human recombinant LOXL2 (Homo sapiens, UniProt Q9Y4K0).
T3 construct: purchased R&D Systems
T3 sequence (Q9Y4K0 26-774): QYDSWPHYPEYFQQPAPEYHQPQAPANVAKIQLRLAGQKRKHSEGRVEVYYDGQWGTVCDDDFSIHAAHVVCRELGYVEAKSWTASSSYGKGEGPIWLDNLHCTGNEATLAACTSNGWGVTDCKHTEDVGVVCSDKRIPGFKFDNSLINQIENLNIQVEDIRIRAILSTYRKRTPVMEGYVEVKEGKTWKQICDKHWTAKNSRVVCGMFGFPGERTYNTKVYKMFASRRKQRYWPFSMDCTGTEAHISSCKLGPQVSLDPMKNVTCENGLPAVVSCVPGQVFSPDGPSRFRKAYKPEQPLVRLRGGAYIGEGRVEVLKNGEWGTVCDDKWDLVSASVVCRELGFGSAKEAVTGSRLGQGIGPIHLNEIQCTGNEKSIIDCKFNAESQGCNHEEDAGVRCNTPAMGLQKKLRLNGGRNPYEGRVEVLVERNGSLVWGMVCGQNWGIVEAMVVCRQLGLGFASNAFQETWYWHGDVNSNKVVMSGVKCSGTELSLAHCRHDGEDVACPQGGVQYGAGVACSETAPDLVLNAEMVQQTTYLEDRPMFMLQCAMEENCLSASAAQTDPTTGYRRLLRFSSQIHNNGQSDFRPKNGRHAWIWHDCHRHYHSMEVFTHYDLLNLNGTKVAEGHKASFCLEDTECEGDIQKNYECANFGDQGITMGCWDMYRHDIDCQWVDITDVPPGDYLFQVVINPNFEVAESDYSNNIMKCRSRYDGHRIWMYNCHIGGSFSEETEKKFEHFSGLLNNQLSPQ
As to the kind of experiment: Amplex Red oxidation assay, LOXL2 inhibition. The protocol: For compound oxidation assays, the amount of hydrogen peroxide generated at a single concentration (30 µM) of compound relative to DMSO was measured.
as §4, §5
Recombinant human LOXL1 was expressed and purified from cDNA (GeneArt) and 10 mM putrescine was used as substrate. Recombinant human and mouse LOXL2 (R&D Systems) were challenged with 5 mM putrescine (Sigma-Aldrich) as the substrate. Rat and dog recombinant LOXL2 were amplified and purified in house from HEK-293 clones kindly provided by Dr. Fernando Rodríguez Pascual, Madrid University, and used in the same conditions as for the human form. 2 mM putrescine was used as the substrate for recombinant human LOXL3 (R&D Systems) and LOXL4 (Dr. Fernando Rodríguez Pascual, university of Madrid, Spain) assays.

Setting [1] is: read-out: Human Fibroblast LOX IC50.
The mark [2] stands for this setting: 30 min pre-incubation, read-out: LOXL2 IC50.

For the compound `NC/C=C(\F)CS(=O)(=O)c1ccccc1` [PXS-4787], the IC50 at DAO (read-out: Recombinant DAO IC50) is more than 100 µM; on Human Fibroblast LOX (setting [1]) it was 5.19 µM; at Human recombinant LOXL2 (setting [2]), 0.6 µM; at Human recombinant LOXL2 (read-out: Human Recombinant LOXL2 pIC50±SD (converted)), 0.631 µM. Moreover, the inhibition at 30 µM at Human recombinant LOXL2 (log conc -4.5229, read-out: Fig 2A inhibition (mean)) was 98.4%. Besides, on Human recombinant LOXL2 (log conc -5, read-out: Fig 2A inhibition (mean)), the inhibition at 10 µM came out at 95.6%. Besides, the inhibition at 3.333 µM at Human recombinant LOXL2 (log conc -5.4771, read-out: Fig 2A inhibition (mean)) was determined as 87.6%. Further, at Human recombinant LOXL2 (log conc -5.9542, read-out: Fig 2A inhibition (mean)), the inhibition at 1.111 µM turned out to be 67.7%. Further, the inhibition at 0.3704 µM at Human recombinant LOXL2 (log conc -6.4313, read-out: Fig 2A inhibition (mean)) came out at 40.3%. Also, the inhibition at 0.1235 µM on Human recombinant LOXL2 (log conc -6.9083, read-out: Fig 2A inhibition (mean)) is 18.8%. The inhibition at 0.0412 µM at Human recombinant LOXL2 (log conc -7.3851, read-out: Fig 2A inhibition (mean)) was 9.34%. The inhibition at 0.0137 µM at Human recombinant LOXL2 (log conc -7.8633, read-out: Fig 2A inhibition (mean)) worked out at 2.56%. The inhibition at 0.0046 µM at Human recombinant LOXL2 (log conc -8.3372, read-out: Fig 2A inhibition (mean)) turned out to be 0.119%. Moreover, at Human recombinant LOXL2 (log conc -8.8239, read-out: Fig 2A inhibition (mean)), the inhibition at […] was -0.297%. Moreover, the inhibition at 0.0005 µM at Human recombinant LOXL2 (log conc -9.301, read-out: Fig 2A inhibition (mean)) is -1.19%.

Take `N#CCCN` [BAPN, β-aminoproprionitrile, reference compound]: the “Recombinant DAO pIC50” value on DAO was less than 4.5. For the same compound, the IC50 on DAO (read-out: Recombinant DAO IC50) is more than 30 µM; on Human Fibroblast LOX (setting [1]) it was 3.04 µM; at Human recombinant LOXL2 (setting [2]) it was 0.39 µM. Besides, the “Human Fibroblast LOX pIC50±SD” value on Human Fibroblast LOX is given as 5.5 ± 0.1. Moreover, the “Human Recombinant LOXL2 pIC50±SD” value at Human recombinant LOXL2 came to 6.4 ± 0.1.

With `NC/C=C(\F)C(F)(F)S(=O)(=O)c1ccccc1` [PXS-6302], the IC50 was more than 30 µM at DAO, 4.51 µM at Human Fibroblast LOX (setting [1]), 3.98 µM at Human Fibroblast LOX (read-out: Human Fibroblast LOX pIC50±SD (converted)) and 0.43 µM at Human recombinant LOXL2 (setting [2]). In addition, on Human recombinant LOXL2, the “Human Recombinant LOXL2 pIC50±SD” value is listed as 6.4 ± 0.2.
